Patent US4708962A, “Antiviral and antitumor cyclohexadienone compositions” (Harbor Branch Oceanographic Institution, Inc., priority 1985, dated 1987)
Converted amounts (≈) assume the structure as drawn. Like-named read-outs stand apart in the source and are kept apart here.

How the values were obtained:
[1] = system: P-388 murine leukemia cells; assay: Cytotoxicity assay, P388 mouse leukemia cells; format: cell-based
Description: (§1) The following assay method was utilized to illustrate the antitumor effectiveness of compounds 1-7.
(§2) L1210 And P388 MOUSE LEUKEMIA CELL; ILEOCECAL ADENO CARCINOMA HCT-8; AND LUNG CARCINOMA A549; CYTOXICITY ASSAY 24-WELL PLATE SCREENING ASSAY AND TUBE ASSAY PROTOCOL
(§3) Media--Dulbeccos with glucose and pyruvate (Biologos, Inc) with 10% horse serum, (Biologos, Inc) and 1.0 ug/ml gentamicin (Gibco).
(§4) Cells--L1210 and P-388 mouse leukemia cells (American Type Culture Collection) in media at a concentration of 5×10^4 cells/ml. Sterile 24-well culture plates (Nunc) for screening or 12×75 mm glass culture tubes (Becton-Dickinson) for tube assay. Microdispenser with 1 to 5 ul increments (Drummond Scientific Co. Broomall PA).
(§5) Finnpipette with 5 to 50 ul increments and Finnpipette with 50 to 200 ul increments.
(§6) 1. A sample of the composition to be assayed is added to each well or tube in an amount of from 200 ug/ml and 100 ug/ml for screening. For DDC of known active compounds use log concentrations from 100 ug/ml to 0.01 ug/ml for range-finding assay; when range has been determined, use five concentrations between highest and lowest active concentrations.
(§7) 2. Add 2.0 ml of 5×10^4 cell suspension in media to each well or tube. Tubes are loosely covered with parafilm.
(§8) 3. Incubate in 5% CO2 incubator 48 hours.
(§9) 4. Visually read plates with inverted microscope, comparing with solvent control. Assign activity as follows:
(§10) 1+=75-89% of control growth
(§11) 2+=50-74% of control growth
(§12) 3+=25-49% of control growth
(§13) 4+=<25% of control growth
(§14) Repeat all positive samples using tube assay.
(§15) 5. For Tube assays--Mix tube well on vortex and remove 0.5 ml aliquot and add to 9.5 ml nf diluent fluid (Isoton-Coulter) in Accuvette (Coulter) and mix well by inversion immediately before counting, taking care not to produce excessive bubbles. Count on Coulter Counter (Counter is set to count 0.5 ml of the solution, therefore counts may be converted to cell/ml in original assay tube by multiplying count by 40.
(§16) Positive control--Vinblastine or Vincristine in aqueous solution.

lung carcinoma A549 = assay: Cytotoxicity assay, lung carcinoma A549; format: cell-based; details: Homo sapiens, 48 h, summary table, read-out: Test Cells at (ID 50), A549
Description: as §1, §2, §3, §5, §6, §7, §8, §9, §10, §11, §12, §13, §14, §15, §16

[2] = system: ileocecal adenocarcinoma HCT-8; assay: Cytotoxicity assay, ileocecal adenocarcinoma HCT-8; format: cell-based; details: Homo sapiens, 48 h, summary table, read-out: Test Cells at (ID 50), HCT-8
Description: as §1, §2, §3, §5, §6, §7, §8, §9, §10, §11, §12, §13, §14, §15, §16

HSV-I = assay: Antiviral assay: inhibition of HSV-I plaque formation (disks pushed into methyl cellulose overlay); format: cell-based, herpes simplex-I; details: for 25 to 80 plaque forming units of virus cells
Description: The following assay method was utilized to illustrate the antiviral effectiveness of compound (1). (1) Remove 75 cm^2 culture flasks from incubator (these were plated the previous week). (2) Aspirate medium. (3) Wash with 10 ml PBSA or Puck's Saline. (4) Aspirate. (5) Wash a second time with 10 ml PBSA or Puck's Saline. (6) Aspirate. (7) Add 2 ml trypsin/EDTA. Incubate until cells detach (10-20 min). (8) Once detached, shake vigorously and immediately add 8 ml medium and shake again. (9) Count cells. (To 0.5 ml cell suspension add 0.1 ml trypan blue. Wait 5-10 minutes. Count 4 corner squares and middle square of 5×5 array in hemocytometer. Blue cells are dead. Total count per 10 ml in culture flask=# live cells×6×10^5). (10) Maintain cell line by adding 3×10^6 cells to another 75 cm^2 culture flask. Bring to 30 ml with fresh medium. (11) For assay, add 1×10^6 cells to each well (6 wells per culture dish). Bring each well to 2 ml with fresh medium. (12) Incubate overnight at 37° C. (1) Aspirate medium. […] (3) Incubate […] with a small amount of shaking. (4) Add 2 ml MC-4000 to each well. (5) Place disks on surface and push through (1 mg/disc, 0.5 mg/disc, 0.25 mg/disc, etc. for crude extracts). (6) Incubate 48 hr. (making sure dishes remain level). (1) Add 2 ml neutral red medium. (2) Incubate overnight. […]

cells = assay: Zone of cytotoxicity in the antiviral disk assay; format: cell-based; details: read at Day 5, disk assay
Description: The following assay method was utilized to illustrate the antiviral effectiveness of compound (1).
(8) Once detached, shake vigorously and immediately add 8 ml medium and shake again.
(9) Count cells. (To 0.5 ml cell suspension add 0.1 ml trypan blue. Wait 5-10 minutes. Count 4 corner squares and middle square of 5×5 array in hemocytometer. Blue cells are dead. Total count per 10 ml in culture
(11) For assay, add 1×10^6 cells to each well (6 wells per culture dish). Bring each well to 2 ml with fresh medium.
(5) Place disks on surface and push through (1 mg/disc, 0.5 mg/disc, 0.25 mg/disc, etc. for crude extracts).
(6) Incubate 48 hr. (making sure dishes remain level).
(1) Add 2 ml neutral red medium.

[3] = system: L-1210 murine leukemia cells; assay: Cytotoxicity assay, L1210 mouse leukemia cells; format: cell-based; details: for viability at 200 µg/mL: in vitro, at 200 micrograms per milliliter, read-out: survival, L-1210
Description: as §1, §2, §3, §4, §5, §6, §7, §8, §9, §10, §11, §12, §13, §14, §15, §16

[4] = Stability at room temperature; format: physicochemical
[5] = P-388, summary table, read-out: Test Cells at (ID 50), P-388
[6] = in vitro, P-388 murine leukemia cells, read-out: estimated ID50 (dose which kills 50% of the cells), P-388

SMILES | IC50 [1, 5] [µg/mL] | IC50 (lung carcinoma A549) [µg/mL] | IC50 [2] [µg/mL] | minimal effective amounts (antiviral activity) (HSV-I) [micrograms] | zone of cytotoxicity as the diameter (cells) [mm] | IC50 [1, 6] [µg/mL] | viability at 200 µg/mL [3] [%] | IC50 ([3]; L-1210 murine leukemia cells, read-out: estimated ID50, L-1210) [µg/mL] | decomposition [4]
CC1(C)C=CC(=O)C(C(Cl)CBr)=C1 (stereo not drawn) [Composition 6] | 0.5 (≈ 1.9 µM) | 5 (≈ 19 µM) | 5 (≈ 19 µM) |  |  |  |  |  | 
CC(=O)OCC(Cl)C1=CC(C)(C)C=CC1=O (stereo not drawn) [Compound 1] | 5 (≈ 20.6 µM) | 20 (≈ 82.4 µM) | 10 (≈ 41.2 µM) | 50 to 100 | 16 | 37 (≈ 152 µM) |  |  | 
C=C(OC)C1=CC(C)(C)C=CC1=O [Compound 2] | 5 (≈ 28.1 µM) | 30 (≈ 168 µM) | 20 (≈ 112 µM) |  |  |  | 15 |  | 
COC(C)(OC)C1=CC(C)(C)C=CC1=O [Compound 3] | 10 (≈ 47.6 µM) | 30 (≈ 143 µM) | 30 (≈ 143 µM) |  |  | 70 (≈ 333 µM) | 17 |  | 
CC(=O)C1=CC(C)(C)C=CC1=O [Compound 4] | 5 (≈ 30.4 µM) | 5 (≈ 30.4 µM) | 5 (≈ 30.4 µM) |  |  | 70 (≈ 426 µM) | 41 |  | 
CC1(C)C=CC(=O)C(C2CO2)=C1 (stereo not drawn) [Compound 5] | 10 (≈ 60.9 µM) | 1 (≈ 6.09 µM) | 5 (≈ 30.4 µM) |  |  | 5 (≈ 30.4 µM) | 25 | 0.7 (≈ 4.26 µM) | 
CC1(C)C=CC(=O)C(C(Cl)CO)=C1 (stereo not drawn) [Formula VIII] |  |  |  |  |  |  |  |  | decompose at room temperature in two hours
